Laboratory results taken from US12502416B1, “PAM3CSK4 injection for the prevention and management of MASLD” (DASMAN DIABETES INSTITUTE, priority 2025, dated 2025).
Ends that are not written are not given here. * marks the point of attachment. X1 = 2,3‑bis(palmitoyloxy)‑(2RS)‑propyl, CCCCCCCCCCCCCCCC(=O)OCC(C*)OC(=O)CCCCCCCCCCCCCCC; Palmitoyl = CCCCCCCCCCCCCCCC(=O)*

Assays:
Type in all cases: in vivo
[1] = system: C57BL/6 mice on high-fat diet (liver steatosis); test: Liver section histology (H&E) in high-fat diet mice with liver steatosis; conditions: obese HFD mice with steatosis, 10 μg/kg IP every other day for two weeks
Experimental: (§1) In the experiment, 8-10 weeks-old male mice (n−20) were fed a high-fat diet (60% fat). […] These mice were randomly divided into 2 groups. Mice in Group 1(n−10) received injections of 0.9% normal saline (vehicle) every other day for a duration of two weeks. Mice in Group 2 (n−10) received injections of Pam3CSK4 (SEQ ID NO: 1) (drug:10 μg/kg; IP) every other day for a duration of two weeks. Throughout the treatment period, mice were kept on a high-fat diet. A) Liver sections of the mice were stained with H&E. Referring to FIG. 2, fasting blood glucose was reduced in the mice treated with Pam3CSK4 (SEQ ID NO: 1) compared to mice treated with a vehicle. […] By non-limiting example, a vehicle may be saline, a sugar water solution, or other similar substances that may be injected without affecting the subject directly. Data is presented as mean±SD.

[2] = system: C57BL/6 mice on high-fat diet (impaired glucose homeostasis); test: Fasting blood glucose in high-fat diet mice; conditions: HFD mice; 10 μg/kg IP every other day for two weeks; compared to vehicle (FIG. 2)
Experimental: as §1

PPAR-γ = test: Liver PPAR-γ expression by qRT-PCR in high-fat diet mice; conditions: HFD mice; 10 μg/kg IP every other day for two weeks; liver total RNA, qRT-PCR (FIG. 3A)
Experimental: (§2) Referring to FIGS. 3A-3B, 8-10 weeks-old male mice (n−20) were fed a high-fat diet (60% fat). […] These mice were randomly divided into 2 groups. Mice in Group 1 (n=10) received injections of 0.9% normal saline (vehicle) every other day for a duration of two weeks. Mice in Group 2 (n=10) received injections of Pam3CSK4 (SEQ ID NO: 1) (drug:10 μg/kg; IP) every other day for a duration of two weeks. Throughout the treatment period, mice were kept on a high-fat diet. Total RNA was extracted from livers and expression of PPAR-γ (FIG. 3A) and CD36 (FIG. 3B) was determined by qRT-PCR. Data presents as mean±SD.

CD36 = test: Liver CD36 expression by qRT-PCR in high-fat diet mice; conditions: HFD mice; 10 μg/kg IP every other day for two weeks; liver total RNA, qRT-PCR (FIG. 3B)
Experimental: as §2

Which “normal liver without any fat in treated mice” value [1] does the source give for “Pam3CysSerLys4 (Palmitoyl-C(X1)SKKKK) [Pam3CSK4, a synthetic triacylated lipopeptide (LP) and a TLR2/TLR1 ligand]” here?
The value was 100%.

What about the hepatic fat accumulation ([1]; vs vehicle) of the same substance?
The hepatic fat accumulation was “effectively reduces hepatic fat accumulation”.

What about the “fasting blood glucose (FBG)” value [2] of the same substance?
The value was “reduced”.

And the “PPAR-γ expression in the liver” value (PPAR-γ)?
Its value is “suppressed”.

And the “CD36 expression in the liver” value (CD36)?
Its value is “suppressed”.
